Tests used:
PDE10A (human) = molecular target: T1, PDE10A (human) (Homo sapiens, UniProt Q9Y233); assay: Measurement of PDE activity (HTRF cAMP kit), PDE10A human; format: biochemical; conditions: Table 1
T1 construct: purchased BPS Bioscience
Procedure: The recombinant PDE proteins are used in in vitro enzymatic reaction for measurement of PDE activity. These recombinant proteins, including PDE10A (human, rat and mouse PDE10) and isoforms of PDEs 1, 3, 4, and 5, were purchased from commercial vendor BPS Bioscience. The enzymatic activity of PDEs was determined by cAMP measurement kit from CisBio (IBA) using HTRF technology.
The PDE enzymatic reaction was carried out in assay buffer (20 mM Tris-HCl pH7.5, 10 mM MgCl2, 0.1% bovine serum albumin) containing enzyme and substrate. The PDE enzymes concentration ranged from 10 pM-250 pM, depending on each enzyme's specific activity. The substrate cyclic nucleotide (cAMP or cGMP) concentration used in the assay was 20 nM for PDE10, and 100 nM for other PDEs. The inhibitory effect of compound was determined by incubating various concentration of inhibitor in the enzymatic assay. Typically, compound was serial diluted in DMSO then further diluted in assay buffer. Next, the compound at varying concentration was mixed with PDE enzyme. The reaction was initiated by addition of cyclic nucleotide substrate, and incubated for 60 minutes at 29 C. The reaction was stopped by addition of lysis buffer from assay kit. The cAMP-d2 and anti-cAMP cryptate in the lysis buffer detected the level of cAMP left from the PDE hydrolysis reaction. […]

rats [1] = conditions: cited from earlier work
rats [2] = conditions: cited from earlier work; remark: listed apart in the source
rats [3] = conditions: cited from earlier work; remark: listed apart in the source

T1 sequence (Q9Y233 whole entry): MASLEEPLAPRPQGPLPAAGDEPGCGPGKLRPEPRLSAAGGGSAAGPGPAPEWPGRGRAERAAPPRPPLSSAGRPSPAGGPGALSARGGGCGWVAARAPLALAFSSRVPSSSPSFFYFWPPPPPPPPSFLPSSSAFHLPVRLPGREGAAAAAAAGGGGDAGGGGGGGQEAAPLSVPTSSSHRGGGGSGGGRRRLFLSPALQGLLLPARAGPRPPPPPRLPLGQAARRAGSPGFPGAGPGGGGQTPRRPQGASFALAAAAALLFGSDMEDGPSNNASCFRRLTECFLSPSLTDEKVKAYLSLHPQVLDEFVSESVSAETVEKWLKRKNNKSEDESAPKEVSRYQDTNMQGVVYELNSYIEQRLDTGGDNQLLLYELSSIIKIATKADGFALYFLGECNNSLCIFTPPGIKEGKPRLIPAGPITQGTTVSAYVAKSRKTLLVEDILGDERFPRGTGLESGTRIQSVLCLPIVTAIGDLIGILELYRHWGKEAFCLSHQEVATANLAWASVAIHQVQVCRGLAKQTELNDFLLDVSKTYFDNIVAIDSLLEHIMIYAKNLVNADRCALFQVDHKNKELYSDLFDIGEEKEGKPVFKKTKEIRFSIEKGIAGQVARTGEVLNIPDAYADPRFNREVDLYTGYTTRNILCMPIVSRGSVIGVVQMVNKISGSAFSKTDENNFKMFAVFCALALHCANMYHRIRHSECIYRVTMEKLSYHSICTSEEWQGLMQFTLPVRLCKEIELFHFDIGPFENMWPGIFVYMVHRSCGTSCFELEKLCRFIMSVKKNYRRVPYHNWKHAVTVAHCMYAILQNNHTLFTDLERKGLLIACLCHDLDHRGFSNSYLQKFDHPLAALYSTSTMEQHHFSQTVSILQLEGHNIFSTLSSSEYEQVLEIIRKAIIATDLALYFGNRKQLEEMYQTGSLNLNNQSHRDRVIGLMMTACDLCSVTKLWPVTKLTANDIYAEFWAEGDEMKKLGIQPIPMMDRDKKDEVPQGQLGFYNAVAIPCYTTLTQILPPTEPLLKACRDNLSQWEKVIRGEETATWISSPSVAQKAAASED

“anti 8-((3 S)-3-hydroxypiperidin-1-yl)-2-(2-(quinolin-2-yl)cyclopropyl)isoquinolin-1(2H)-one (2E)-but-2-enedioate [Example 244]” gave an IC50 (PDE10A (human)) of less than 100 nM.

For `COc1ccc(Cc2nccc3cc(OC)c(OC)cc23)cc1OC` [Papaverine, papaverine], the “catalepsy on its own” value (rats [1]; papaverine alone) is given as “did not cause catalepsy”, the “cataleptic effect of the D2 receptor antagonist haloperidol” value (rats [1]; together with haloperidol) is given as “potentiated the cataleptic effect” and the “hyperactivity in rats induced by PCP” value (rats [2]) is given as “reduced hyperactivity”. The “reduction of amphetamine-induced hyperactivity” value (rats [3]) was “insignificant”.

For `O=c1c2cccc(-c3cccc(O)c3)c2cnn1CCc1ccc2ccccc2n1` [Example 220, 5-(3-hydroxyphenyl)-2-[2-(quinolin-2-yl)ethyl]phthalazin-1(2H)-one], the IC50 (PDE10A (human)) was less than 100 nM.
